AC50 data for six compounds are collected here from ChEMBL document CHEMBL5291721, “A preclinical secondary pharmacology resource illuminates target-adverse drug reaction associations of marketed drugs” (Nat Commun, 2023).

The structures appear in SMILES notation.

The target in test [1] is T1, Alpha-1A adrenergic receptor (Homo sapiens, UniProt P35348).
T1 sequence (P35348 whole entry): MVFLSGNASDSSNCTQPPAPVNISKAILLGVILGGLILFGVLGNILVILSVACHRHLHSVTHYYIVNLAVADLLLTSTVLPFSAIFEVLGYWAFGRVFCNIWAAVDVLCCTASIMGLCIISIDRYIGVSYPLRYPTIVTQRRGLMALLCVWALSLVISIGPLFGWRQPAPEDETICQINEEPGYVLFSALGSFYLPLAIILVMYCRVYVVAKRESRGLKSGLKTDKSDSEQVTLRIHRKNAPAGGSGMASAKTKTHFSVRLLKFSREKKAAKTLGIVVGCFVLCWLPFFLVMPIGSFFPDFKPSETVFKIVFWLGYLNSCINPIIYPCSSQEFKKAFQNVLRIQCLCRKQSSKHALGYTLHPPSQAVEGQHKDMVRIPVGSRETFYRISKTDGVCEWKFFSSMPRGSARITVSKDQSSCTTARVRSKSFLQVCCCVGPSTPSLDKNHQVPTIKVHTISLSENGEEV
It counts as functional, cell-based.

Test [2] deals with T2, Prostaglandin G/H synthase 1 (Homo sapiens, UniProt P23219). It counts as functional.
T2 sequence (P23219 whole entry): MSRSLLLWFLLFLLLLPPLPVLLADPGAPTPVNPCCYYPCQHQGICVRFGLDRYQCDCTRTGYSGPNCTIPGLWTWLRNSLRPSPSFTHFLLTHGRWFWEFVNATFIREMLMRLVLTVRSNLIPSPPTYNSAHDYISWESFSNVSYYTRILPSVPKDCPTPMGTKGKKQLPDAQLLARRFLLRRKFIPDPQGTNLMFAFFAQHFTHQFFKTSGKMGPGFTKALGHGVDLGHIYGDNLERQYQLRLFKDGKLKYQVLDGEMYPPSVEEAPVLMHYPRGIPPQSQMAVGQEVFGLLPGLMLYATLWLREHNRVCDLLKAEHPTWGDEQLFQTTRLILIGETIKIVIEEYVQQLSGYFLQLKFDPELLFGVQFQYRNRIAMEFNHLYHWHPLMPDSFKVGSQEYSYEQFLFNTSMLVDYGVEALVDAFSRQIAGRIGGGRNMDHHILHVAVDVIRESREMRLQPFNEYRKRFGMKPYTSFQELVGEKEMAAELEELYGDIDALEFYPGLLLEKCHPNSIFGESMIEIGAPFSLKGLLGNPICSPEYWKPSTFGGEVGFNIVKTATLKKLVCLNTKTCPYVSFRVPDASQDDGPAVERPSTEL
The target of test [3] is T2, Prostaglandin G/H synthase 1. It counts as functional. The source holds these as a separate data set.
Test [4] has as its target T1, Alpha-1A adrenergic receptor. It counts as functional, cell-based. The source holds these as a separate data set.
Test [5] concerns the target T3, Muscarinic acetylcholine receptor M1 (Homo sapiens, UniProt P11229).
T3 sequence (P11229 whole entry): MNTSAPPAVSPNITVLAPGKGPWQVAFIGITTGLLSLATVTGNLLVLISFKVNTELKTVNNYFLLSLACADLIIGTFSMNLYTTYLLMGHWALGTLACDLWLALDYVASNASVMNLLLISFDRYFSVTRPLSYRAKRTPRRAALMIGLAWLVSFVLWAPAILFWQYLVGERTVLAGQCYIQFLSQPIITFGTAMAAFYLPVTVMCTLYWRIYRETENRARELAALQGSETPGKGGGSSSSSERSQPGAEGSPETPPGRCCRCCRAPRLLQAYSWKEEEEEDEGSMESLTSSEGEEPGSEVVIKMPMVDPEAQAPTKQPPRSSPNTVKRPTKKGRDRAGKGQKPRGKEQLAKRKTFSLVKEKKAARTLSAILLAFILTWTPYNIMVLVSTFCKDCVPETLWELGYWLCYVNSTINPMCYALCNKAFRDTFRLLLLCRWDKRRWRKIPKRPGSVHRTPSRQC
Format: functional, cell-based.

Test [6] has as its target Voltage-gated inwardly rectifying potassium channel KCNH2 (Homo sapiens, UniProt Q12809). It counts as functional. Conditions: read-out: AC50.
The target in the next test is T4, Estrogen receptor (Homo sapiens, UniProt P03372).
T4 sequence (P03372 whole entry): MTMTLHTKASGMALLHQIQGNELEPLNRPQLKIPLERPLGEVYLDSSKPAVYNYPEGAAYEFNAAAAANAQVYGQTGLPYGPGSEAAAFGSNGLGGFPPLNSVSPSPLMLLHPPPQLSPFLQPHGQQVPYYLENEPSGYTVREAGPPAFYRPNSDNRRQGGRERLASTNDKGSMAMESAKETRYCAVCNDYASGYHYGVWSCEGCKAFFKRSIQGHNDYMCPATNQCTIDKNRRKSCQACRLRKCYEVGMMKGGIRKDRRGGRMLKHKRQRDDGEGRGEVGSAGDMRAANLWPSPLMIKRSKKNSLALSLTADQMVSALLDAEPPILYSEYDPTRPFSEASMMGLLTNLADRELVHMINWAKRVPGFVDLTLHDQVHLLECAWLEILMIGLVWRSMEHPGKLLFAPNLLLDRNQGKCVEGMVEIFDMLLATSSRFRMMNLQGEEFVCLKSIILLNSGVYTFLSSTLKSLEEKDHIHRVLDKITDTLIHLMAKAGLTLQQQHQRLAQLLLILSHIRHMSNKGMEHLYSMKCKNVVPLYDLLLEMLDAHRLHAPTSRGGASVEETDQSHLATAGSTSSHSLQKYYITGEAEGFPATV

The target of a further test is Histamine H3 receptor (Homo sapiens, UniProt Q9Y5N1).
Chain of Histamine H3 receptor (Q9Y5N1 whole entry): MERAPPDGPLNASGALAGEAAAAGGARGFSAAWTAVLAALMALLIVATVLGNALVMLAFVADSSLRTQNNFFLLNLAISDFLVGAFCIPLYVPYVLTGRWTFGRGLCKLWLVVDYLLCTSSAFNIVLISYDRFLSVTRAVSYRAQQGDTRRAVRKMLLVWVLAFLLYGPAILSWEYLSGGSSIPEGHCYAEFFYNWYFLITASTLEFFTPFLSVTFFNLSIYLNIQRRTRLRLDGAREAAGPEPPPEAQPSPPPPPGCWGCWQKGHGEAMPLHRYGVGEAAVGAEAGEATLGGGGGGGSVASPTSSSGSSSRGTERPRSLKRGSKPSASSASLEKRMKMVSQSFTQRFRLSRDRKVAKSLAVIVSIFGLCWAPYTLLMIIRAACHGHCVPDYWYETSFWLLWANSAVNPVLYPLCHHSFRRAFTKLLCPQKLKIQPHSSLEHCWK
Test [7] deals with T5, Muscarinic acetylcholine receptor M2 (Homo sapiens, UniProt P08172).
T5 sequence (P08172 whole entry): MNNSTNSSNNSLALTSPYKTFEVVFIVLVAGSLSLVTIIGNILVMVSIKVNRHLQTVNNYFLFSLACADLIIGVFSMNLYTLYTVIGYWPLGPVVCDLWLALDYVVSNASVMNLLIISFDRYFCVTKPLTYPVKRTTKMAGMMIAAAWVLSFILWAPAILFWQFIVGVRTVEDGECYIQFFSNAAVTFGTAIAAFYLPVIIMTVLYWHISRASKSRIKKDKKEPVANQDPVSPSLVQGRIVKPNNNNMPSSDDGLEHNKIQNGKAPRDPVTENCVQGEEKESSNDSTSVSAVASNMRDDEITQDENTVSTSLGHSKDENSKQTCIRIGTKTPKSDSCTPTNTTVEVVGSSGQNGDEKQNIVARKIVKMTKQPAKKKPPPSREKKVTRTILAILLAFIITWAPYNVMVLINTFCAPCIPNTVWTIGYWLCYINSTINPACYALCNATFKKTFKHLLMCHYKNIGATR

Test [8] addresses Sodium-dependent serotonin transporter (Homo sapiens, UniProt P31645).
The next test has as its target Mu-type opioid receptor (Homo sapiens, UniProt P35372).
The target of test [9] is cGMP-inhibited 3',5'-cyclic phosphodiesterase 3A (Homo sapiens, UniProt Q14432). It counts as functional.
Chain of cGMP-inhibited 3',5'-cyclic phosphodiesterase 3A (Q14432 whole entry): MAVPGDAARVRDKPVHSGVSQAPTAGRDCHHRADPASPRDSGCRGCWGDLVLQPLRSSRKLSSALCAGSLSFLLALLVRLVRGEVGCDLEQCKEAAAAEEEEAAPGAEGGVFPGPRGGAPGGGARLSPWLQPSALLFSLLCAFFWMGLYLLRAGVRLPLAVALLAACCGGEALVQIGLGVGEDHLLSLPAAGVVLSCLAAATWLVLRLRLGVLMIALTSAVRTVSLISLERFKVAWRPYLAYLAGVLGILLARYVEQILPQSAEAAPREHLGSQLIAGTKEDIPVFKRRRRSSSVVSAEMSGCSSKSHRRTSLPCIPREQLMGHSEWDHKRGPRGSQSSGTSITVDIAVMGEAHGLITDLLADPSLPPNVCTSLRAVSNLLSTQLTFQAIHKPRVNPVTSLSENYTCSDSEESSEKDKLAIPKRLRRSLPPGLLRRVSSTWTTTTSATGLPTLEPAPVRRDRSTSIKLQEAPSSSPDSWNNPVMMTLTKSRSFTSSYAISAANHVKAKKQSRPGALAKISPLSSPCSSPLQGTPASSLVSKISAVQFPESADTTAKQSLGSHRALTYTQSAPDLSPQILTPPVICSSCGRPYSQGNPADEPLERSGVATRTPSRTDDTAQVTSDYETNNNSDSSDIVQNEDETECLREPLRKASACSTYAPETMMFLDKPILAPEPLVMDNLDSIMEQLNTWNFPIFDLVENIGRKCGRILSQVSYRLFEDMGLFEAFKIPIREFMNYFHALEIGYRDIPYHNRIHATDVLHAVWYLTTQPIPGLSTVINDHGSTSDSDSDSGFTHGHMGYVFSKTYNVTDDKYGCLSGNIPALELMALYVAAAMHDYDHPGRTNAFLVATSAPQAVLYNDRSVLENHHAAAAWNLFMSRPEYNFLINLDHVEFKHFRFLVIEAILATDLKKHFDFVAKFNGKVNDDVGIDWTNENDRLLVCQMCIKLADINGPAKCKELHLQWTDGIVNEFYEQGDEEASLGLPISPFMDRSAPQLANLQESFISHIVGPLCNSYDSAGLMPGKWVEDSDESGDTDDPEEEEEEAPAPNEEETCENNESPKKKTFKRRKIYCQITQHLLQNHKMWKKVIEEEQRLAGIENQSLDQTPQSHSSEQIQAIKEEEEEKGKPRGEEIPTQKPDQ
In test [10] the target is 3',5'-cyclic-AMP phosphodiesterase 4A (Homo sapiens, UniProt P27815). Format: functional.
Chain of 3',5'-cyclic-AMP phosphodiesterase 4A (P27815 whole entry): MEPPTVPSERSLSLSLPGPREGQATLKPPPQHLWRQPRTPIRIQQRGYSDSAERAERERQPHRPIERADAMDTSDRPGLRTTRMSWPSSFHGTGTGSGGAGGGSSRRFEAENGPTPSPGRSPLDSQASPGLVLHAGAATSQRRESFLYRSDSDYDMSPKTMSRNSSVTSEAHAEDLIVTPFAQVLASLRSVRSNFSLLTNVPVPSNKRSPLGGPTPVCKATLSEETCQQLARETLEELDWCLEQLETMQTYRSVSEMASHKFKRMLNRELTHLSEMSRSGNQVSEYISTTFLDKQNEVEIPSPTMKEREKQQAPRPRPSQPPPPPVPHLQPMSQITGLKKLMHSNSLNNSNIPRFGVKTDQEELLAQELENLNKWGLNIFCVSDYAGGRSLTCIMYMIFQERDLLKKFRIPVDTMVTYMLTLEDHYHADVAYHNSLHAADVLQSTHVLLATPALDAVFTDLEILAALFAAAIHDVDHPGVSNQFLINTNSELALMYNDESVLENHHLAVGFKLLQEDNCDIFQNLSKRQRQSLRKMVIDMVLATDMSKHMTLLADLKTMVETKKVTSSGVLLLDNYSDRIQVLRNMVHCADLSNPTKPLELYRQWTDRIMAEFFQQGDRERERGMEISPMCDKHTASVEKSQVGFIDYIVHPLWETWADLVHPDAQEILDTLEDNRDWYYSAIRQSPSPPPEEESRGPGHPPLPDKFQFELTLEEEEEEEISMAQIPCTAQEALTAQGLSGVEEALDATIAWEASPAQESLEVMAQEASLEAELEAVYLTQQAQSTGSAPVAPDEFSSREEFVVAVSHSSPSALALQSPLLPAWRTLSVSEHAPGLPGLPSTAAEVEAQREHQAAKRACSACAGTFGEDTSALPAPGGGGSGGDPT

A word on the AC50: it is the concentration at which the activity in the assay is half-maximal.
Note: assay procedure not described here.

Chain of Mu-type opioid receptor (P35372 whole entry): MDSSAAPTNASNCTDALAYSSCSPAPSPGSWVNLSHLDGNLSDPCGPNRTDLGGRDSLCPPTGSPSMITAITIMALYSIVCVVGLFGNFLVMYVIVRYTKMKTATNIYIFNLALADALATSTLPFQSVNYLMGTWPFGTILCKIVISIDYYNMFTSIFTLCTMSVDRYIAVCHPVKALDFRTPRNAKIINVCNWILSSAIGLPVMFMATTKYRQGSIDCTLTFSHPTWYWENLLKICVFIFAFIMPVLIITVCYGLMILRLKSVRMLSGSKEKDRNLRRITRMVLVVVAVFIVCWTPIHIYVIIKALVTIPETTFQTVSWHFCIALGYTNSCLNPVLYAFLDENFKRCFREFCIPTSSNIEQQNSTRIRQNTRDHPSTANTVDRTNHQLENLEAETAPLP
Chain of Voltage-gated inwardly rectifying potassium channel KCNH2 (Q12809 whole entry): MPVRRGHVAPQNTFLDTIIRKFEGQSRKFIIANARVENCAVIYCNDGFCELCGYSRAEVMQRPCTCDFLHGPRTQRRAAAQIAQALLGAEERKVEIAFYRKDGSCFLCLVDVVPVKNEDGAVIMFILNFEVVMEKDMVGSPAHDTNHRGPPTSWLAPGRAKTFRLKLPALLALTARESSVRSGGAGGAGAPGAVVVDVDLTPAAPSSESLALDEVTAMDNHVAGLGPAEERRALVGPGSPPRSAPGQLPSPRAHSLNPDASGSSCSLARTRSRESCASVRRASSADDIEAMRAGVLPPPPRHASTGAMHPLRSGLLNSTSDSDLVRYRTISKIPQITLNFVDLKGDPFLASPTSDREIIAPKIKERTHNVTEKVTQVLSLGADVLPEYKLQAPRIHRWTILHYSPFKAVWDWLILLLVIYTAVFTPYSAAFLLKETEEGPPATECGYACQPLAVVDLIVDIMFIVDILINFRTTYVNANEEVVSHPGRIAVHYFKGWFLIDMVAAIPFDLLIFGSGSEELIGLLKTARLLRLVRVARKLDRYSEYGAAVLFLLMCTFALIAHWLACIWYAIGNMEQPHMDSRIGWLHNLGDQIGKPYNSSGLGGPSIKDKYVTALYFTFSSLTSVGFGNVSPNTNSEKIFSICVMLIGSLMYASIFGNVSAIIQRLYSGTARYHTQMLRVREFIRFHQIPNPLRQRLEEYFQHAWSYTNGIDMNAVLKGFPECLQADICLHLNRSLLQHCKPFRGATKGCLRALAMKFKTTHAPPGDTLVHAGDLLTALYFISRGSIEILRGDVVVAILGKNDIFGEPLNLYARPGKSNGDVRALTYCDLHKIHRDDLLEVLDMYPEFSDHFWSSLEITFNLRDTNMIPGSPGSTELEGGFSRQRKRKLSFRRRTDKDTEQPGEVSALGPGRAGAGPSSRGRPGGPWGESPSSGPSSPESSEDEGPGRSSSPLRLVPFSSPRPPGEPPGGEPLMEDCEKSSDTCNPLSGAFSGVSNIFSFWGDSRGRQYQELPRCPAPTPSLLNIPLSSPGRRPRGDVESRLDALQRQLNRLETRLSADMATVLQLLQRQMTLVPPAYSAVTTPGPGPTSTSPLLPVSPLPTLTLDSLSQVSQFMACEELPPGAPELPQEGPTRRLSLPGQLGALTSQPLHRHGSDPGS

In the case of `COC1=C(OC)C(=O)C(C/C=C(\C)CC/C=C(\C)CC/C=C(\C)CC/C=C(\C)CC/C=C(\C)CC/C=C(\C)CC/C=C(\C)CC/C=C(\C)CC/C=C(\C)CCC=C(C)C)=C(C)C1=O` [UBIDECARENONE], the AC50 in [1], in test [2], in test [3], in test [4], in test [5] and in test [6] was > 30 µM each time. The AC50 (on Estrogen receptor; at Histamine H3 receptor; in [7]; in [8]; at Mu-type opioid receptor; in [9]) was > 30 µM in each case. Besides, the AC50 in test [10] is > 30 µM.

Take `Nc1ccc(S(=O)(=O)c2cnc(N)s2)cc1` [THIAZOLSULFONE]: the AC50 in [1], in [2], in test [3], in test [4], in [5] and in test [6] was > 30 µM throughout. Also, the AC50 (at Estrogen receptor; at Histamine H3 receptor; in test [7]; in [8]; at Mu-type opioid receptor; in test [9]) was > 30 µM throughout. Besides, in test [10], the AC50 is > 30 µM.

As to `CCOC(=O)/C=C1\SC(N2CCCCC2)C(=O)N1C` (stereo not drawn) [ETOZOLIN], the AC50 in test [1], in test [2], in [3], in test [4], in test [5] and in test [6] was > 30 µM each time. Further, the AC50 (on Estrogen receptor; at Histamine H3 receptor; in test [7]; in test [8]; at Mu-type opioid receptor; in test [9]) was > 30 µM throughout. The AC50 in test [10] was > 30 µM.

For the compound `CC(C)(C)C(=O)OCOC(=O)[C@@H]1N2C(=O)[C@@H](NC(=O)[C@H](N)c3ccccc3)[C@H]2SC1(C)C` [PIVAMPICILLIN], the AC50 in test [1] was > 30 µM; in test [2], 7.48 µM; in [3], > 30 µM; in test [4] it was > 30 µM; in test [5], 23 µM; in test [6], > 30 µM. The AC50 (on Estrogen receptor; at Histamine H3 receptor; in test [7]; in test [8]; at Mu-type opioid receptor; in test [9]) was > 30 µM in each case. For the same compound, in test [10], the AC50 was > 30 µM.

For `OC(CCN1CCCCC1)(c1ccccc1)c1ccccc1` [PRIDINOL], the AC50 was > 30 µM in test [1]; > 30 µM in [2]; > 30 µM in test [3]; > 30 µM in test [4]; 0.0824 µM in test [5]; 8.8 µM in [6]. Besides, the AC50 is > 30 µM on Estrogen receptor; > 30 µM at Histamine H3 receptor; 0.129 µM in test [7]; > 30 µM in test [8]; 19.4 µM on Mu-type opioid receptor; > 30 µM in test [9]. Further, in [10], the half-maximal activity concentration (AC50) was > 30 µM.

Regarding `CC[C@H]1CN2CC[C@H]1C[C@H]2[C@H](O)c1ccnc2ccc(OC)cc12` [HYDROQUININE], the AC50 was > 30 µM in [1]; > 30 µM in [2]; > 30 µM in test [3]; > 30 µM in [4]; > 30 µM in test [5]; 10 µM in test [6]. The AC50 is > 30 µM on Estrogen receptor; > 30 µM on Histamine H3 receptor; 23.4 µM in test [7]; 3.95 µM in [8]; 8.13 µM at Mu-type opioid receptor; > 30 µM in test [9]. In test [10], the AC50 was > 30 µM.
